# Measured values from US20140274990A1, “CEFTOLOZANE PHARMACEUTICAL COMPOSITIONS” (Cubist Pharmaceuticals, Inc., priority 2013, published 2014).
# Assay: stability testing of initial lyophilized ceftolozane pharmaceutical compositions, HPLC
# Type: physicochemical
# Conditions: certain lyophilized pharmaceutical compositions initially evaluated for intravenous administration
# Text: As disclosed herein, ceftolozane was unstable in certain lyophilized pharmaceutical compositions initially evaluated for intravenous administration. In particular, a decrease in ceftolozane purity and the formation of multiple additional related substances were detected in certain initial ceftolozane pharmaceutical compositions by peaks in […] (HPLC) after stability testing. This testing pointed to the need to develop novel ceftolozane formulations providing increased ceftolozane stability. […] Nor does this disclosure provide guidance on the formation of ceftolozane pharmaceutical compositions to increase ceftolozane purity during stability testing or control the relative amounts of ceftolozane related substances detected by HPLC peak formation during stability testing.
compound,measurement,value
"Cn1c(N)c(NC(=O)NCCN)c[n+]1CC1=C(C(=O)O)N2C(=O)[C@@H](NC(=O)/C(=N\OC(C)(C)C(=O)[O-])c3nsc(N)n3)[C@H]2SC1 [ceftolozane, (6R,7R)-3-[(5-amino-4-{[(2-aminoethyl)carbamoyl]amino}-1-methyl-1H-pyrazol-2-ium-2-yl)methyl]-7-({(2Z)-2-(5-amino-1,2,4-thiadiazol-3-yl)-2-[(1-carboxy-1-methylethoxy)imino]acetyl}amino)-8-oxo-5-thia-1-azabicyclo[4.2.0]oct-2-ene-2-carboxylate]",ceftolozane stability in lyophilized composition,unstable
